Test results taken from article PMC10051454, “Synthesis of Schiff Bases Containing Phenol Rings and Investigation of Their Antioxidant Capacity, Anticholinesterase, Butyrylcholinesterase, and Carbonic Anhydrase Inhibition Properties” (Pharmaceutics, 2023).
“And” between values parts separate entries of the source, which are not always exact repeats. Identical values can stand only once. Like-named read-outs stand apart in the source and are kept apart here.

Assays:
[1] = DPPH radical scavenging (Blois method); conditions: half maximal scavenging concentration
Procedure: DPPH· and ABTS^•+ scavenging methods are the most widely used spectrophotometric methods to determine the antioxidant capacity of newly synthesized compounds. The DPPH‧ scavenging effect of Schiff bases (10–15) and hydrazineylidene derivatives (16 and 17) was realized according to the Blois method. Briefly, 1 mL of DPPH^• solution (0.1 mM), which was prepared in ethanol and was a violet/purple color […], was added to the Schiff base (10–15) and hydrazineylidene derivative (16 and 17) samples at different concentrations (10–30 μg/mL). Then, they were incubated at room temperature for 30 min and their absorbance values were recorded at 517 nm.

[2] = ABTS radical cation scavenging
Procedure: The ABTS radical cation scavenging assay was used as a way to calculate antioxidant capacity based on this radical scavenging ability. Firstly, an aqueous solution of ABTS (7.0 mM) was oxidized by oxidants such as K2S2O8 (2.5 mM) for the production of its radical cation (ABTS^•+). […] Then, 1 mL of ABTS^•+ solution was added to 3 mL Schiff base (10–15) and hydrazineylidene derivative (16 and 17) solutions at different concentrations (10–30 μg/mL).

[3] = Fe3+-TPTZ complex reducing ability (absorbance 593 nm); conditions: 30 µg/mL; absorbance at 593 nm
Procedure: The Fe^3+-TPTZ complex reducing ability of Schiff bases (10–15) and hydrazineylidene derivatives (16 and 17) was realized according to a previous study. For this, 2.25 mL of TPTZ solution (10 mM in 40 mM HCl) was freshly prepared, then added to 2.5 mL of acetate buffer (0.3 M, pH 3.6) and 2.25 mL of FeCl3 solution (20 mM). Then, different concentrations of Schiff bases (10–15) and hydrazineylidene derivatives (16 and 17) were transferred and incubated at 37 °C for 30 min. Finally, the absorbance values of the reducing power of Schiff bases (10–15) and hydrazineylidene derivatives (16 and 17) and standards were spectrophotometrically measured at 593 nm.

[4] = Fe3+ reducing ability (ferricyanide method, absorbance 700 nm); conditions: 30 µg/mL; absorbance at 700 nm
Procedure: The Fe^3+ reducing ability of Schiff bases (10–15) and hydrazineylidene derivatives (16 and 17) were tested according to our prior studies. For this purpose, various concentrations of compounds (10–17) were transferred into test tubes, and 2.5 mL of phosphate buffer (0.2 M, pH 6.6) and 2.5 mL (1%) of potassium ferricyanide [K3Fe(CN)6] solutions were added. Then, the mixture was vortexed and incubated at 50 °C for 20 min. A portion of trichloroacetic acid (2.5 mL, 10%) was added. Then, 2.5 mL of upper layers of the solutions were mixed with 2.5 mL distilled water and 0.5 mL FeCl3 (0.1%). The absorbance values of the reducing effects of compounds (10–17) and standards were spectrophotometrically recorded at 700 nm.

[5] = Cu2+ reducing ability (neocuproine method, absorbance 450 nm); conditions: 30 µg/mL; absorbance at 450 nm
Procedure: The Cu^2+ reducing ability of Schiff bases (10–15) and hydrazineylidene derivatives (16 and 17) were detected according to a prior study. For this purpose, 0.25 mL of CuCl2 solution (10 mM), 0.25 mL of ethanolic neocuproine solution (7.5 × 10^−3 M), and 250 μL of NH4Ac buffer solution (1.0 M) in different concentrations (10–30 μg/mL) were transferred to test tubes containing Schiff base (10–15) and hydrazineylidene derivative (16 and 17) samples. The total volume was made up to 2 mL with distilled water, and their absorbance values were recorded at 450 nm after 30 min of incubation.

BChE = BChE (Homo sapiens, UniProt P06276); assay: biochemical
Procedure: (§1) Acetylthiocholine iodide/butyrylthiocholine iodide (AChI)/BChI) and 5,5′-dithiobis(2-nitro-benzoic acid) (DTNB) were used as the substrate pattern for both cholinergic reactions. […] Then, the samples were incubated at 25 °C for 15 min, and 50 μL of DTNB solution (0.5 mM,) was transferred.

AChE = AChE (Homo sapiens, UniProt P22303); assay: biochemical
Procedure: as §1

hCA II = hCA II (Homo sapiens, UniProt P00918); assay: hCA II inhibition, esterase assay (Verpoorte); type: biochemical
Excerpt: (§2) Both isoforms’ activity was spectrophotometrically determined according to the Verpoorte assay [47]. […] All experiments of the CA inhibition assay were repeated three times and the results are given as the arithmetic mean of these repetitions.

hCA I [6] = molecular target: T1, hCA I (Homo sapiens, UniProt P00915); assay: biochemical
Excerpt: as §2

hCA I [7] = molecular target: T1, hCA I
Excerpt: as §2

T1 sequence (P00915 whole entry): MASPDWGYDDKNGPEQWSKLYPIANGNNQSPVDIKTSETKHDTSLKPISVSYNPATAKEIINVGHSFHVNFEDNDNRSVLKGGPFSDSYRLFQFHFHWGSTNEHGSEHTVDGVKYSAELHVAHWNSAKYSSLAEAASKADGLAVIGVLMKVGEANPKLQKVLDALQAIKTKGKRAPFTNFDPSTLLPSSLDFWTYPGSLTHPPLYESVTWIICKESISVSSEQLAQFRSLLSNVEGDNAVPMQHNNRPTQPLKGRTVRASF
BChE, sequence (P06276 29-602): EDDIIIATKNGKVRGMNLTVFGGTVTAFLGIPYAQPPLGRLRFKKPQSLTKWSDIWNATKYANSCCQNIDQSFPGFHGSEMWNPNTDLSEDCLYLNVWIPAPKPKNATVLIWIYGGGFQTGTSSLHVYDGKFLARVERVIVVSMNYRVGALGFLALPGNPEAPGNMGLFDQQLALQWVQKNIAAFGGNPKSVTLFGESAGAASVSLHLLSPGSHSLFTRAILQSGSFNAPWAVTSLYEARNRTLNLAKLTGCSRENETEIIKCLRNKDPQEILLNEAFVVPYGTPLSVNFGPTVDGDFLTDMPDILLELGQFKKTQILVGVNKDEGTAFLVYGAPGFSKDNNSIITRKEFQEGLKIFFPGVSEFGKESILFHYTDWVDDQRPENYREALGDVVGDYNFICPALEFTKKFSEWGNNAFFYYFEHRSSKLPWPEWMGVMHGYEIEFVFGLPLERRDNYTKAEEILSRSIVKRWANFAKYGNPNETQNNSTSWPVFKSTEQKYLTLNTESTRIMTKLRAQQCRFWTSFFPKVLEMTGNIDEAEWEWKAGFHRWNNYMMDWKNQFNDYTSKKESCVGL
AChE, sequence (P22303 32-614): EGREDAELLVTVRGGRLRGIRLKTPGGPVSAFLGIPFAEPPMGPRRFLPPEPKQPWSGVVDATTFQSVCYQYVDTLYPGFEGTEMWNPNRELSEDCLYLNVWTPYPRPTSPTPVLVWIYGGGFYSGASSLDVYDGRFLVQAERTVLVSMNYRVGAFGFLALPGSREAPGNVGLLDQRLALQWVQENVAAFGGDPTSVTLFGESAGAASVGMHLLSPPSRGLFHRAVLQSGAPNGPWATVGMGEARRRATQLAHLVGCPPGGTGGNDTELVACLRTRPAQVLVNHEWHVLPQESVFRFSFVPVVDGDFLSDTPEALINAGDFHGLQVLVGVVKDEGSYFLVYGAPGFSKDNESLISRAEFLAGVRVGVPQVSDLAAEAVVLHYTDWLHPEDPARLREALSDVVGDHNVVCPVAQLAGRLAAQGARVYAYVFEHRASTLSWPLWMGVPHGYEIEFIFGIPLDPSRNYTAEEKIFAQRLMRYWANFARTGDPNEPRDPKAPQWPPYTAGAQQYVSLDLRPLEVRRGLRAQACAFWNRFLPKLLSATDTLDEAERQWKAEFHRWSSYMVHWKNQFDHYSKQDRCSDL

SMILES | DPPH^• Scavenging IC50 [1] | ABTS^•+ Scavenging IC50 [2] | Fe^3+-TPTZ Reducing λ593 [3] | Fe^3+ Reducing λ700 [4] | Cu^2+ Reducing λ450 [5] | IC50 (BChE) | IC50 (AChE) | Selectivity Index (AChE/BChE) (AChE) | IC50 (hCA II) | IC50 (hCA I [6]) | Ki (hCA I [6]) | Selectivity Index (hCA I/hCA II) (hCA I [7]) | IC50 (BChE; read-out: IC50 BChE) | IC50 (AChE; read-out: IC50 AChE) | IC50 (hCA II; read-out: IC50 hCA II) | Ki (hCA II)
COc1ccc(O)c(C(C)(C)C)c1 [BHA, butylated hydroxyanisole, reference compound] | 11.55 µg/mL | 4.47 µg/mL | 2.156 ± 0.005 absorbance | 2.448 ± 0.021 absorbance | 2.268 ± 0.011 absorbance |  |  |  |  |  |  |  |  |  |  | 
Cc1cc(C(C)(C)C)c(O)c(C(C)(C)C)c1 [BHT, butylated hydroxytoluene, reference compound] | 13.326 µg/mL and 13.32 µg/mL | 4.95 µg/mL | 2.037 ± 0.027 absorbance | 1.994 ± 0.033 absorbance | 2.149 ± 0.019 absorbance |  |  |  |  |  |  |  |  |  |  | 
COc1ccc(C=O)cc1O [Compound 1, Isovanillin] | 86.62 µg/mL | 12.15 µg/mL | 0.728 ± 0.020 absorbance | 0.244 ± 0.005 absorbance | 1.005 ± 0.009 absorbance | 53.3 nM | 57.8 nM | 1.083 | 173 nM | 139 nM | 112 ± 25.8 nM |  |  |  |  | 
NN=C(c1ccccc1)c1ccccc1 [Compound 8, benzophenone hydrazone] |  |  |  |  | 1.005 ± 0.009 absorbance |  |  |  |  |  |  |  |  |  |  | 
COc1ccc(/C=N/c2ccc(N(C)C)cc2)cc1O [Compound 10, (E)-5-(((4-(Dimethylamino)phenyl)imino)methyl)-2-methoxyphenol] | 16.902 µg/mL and 16.90 µg/mL | 14.437 µg/mL and 14.43 µg/mL | 2.076 ± 0.004 absorbance | 2.827 ± 0.016 absorbance | 2.176 ± 0.044 absorbance |  |  | 1.115 |  | 66 nM |  | 0.372 | 23.9 nM | 26.7 nM | 131 nM | 
COc1ccc(/C=N/c2ccccc2O)cc1O [Compound 11, (E)-5-(((2-Hydroxyphenyl)imino)methyl)-2-methoxyphenol] | 12.157 µg/mL and 12.15 µg/mL | 4.386 µg/mL and 4.38 µg/mL | 2.183 ± 0.016 absorbance | 2.591 ± 0.010 absorbance | 2.332 ± 0.018 absorbance |  |  | 0.645 |  | 86.6 nM |  | 0.730 | 34.6 nM | 22.4 nM | 88.2 nM | 
COc1ccc(/C=N/c2ccc(F)cc2)cc1O [Compound 12, (E)-5-(((4-Fluorophenyl)imino)methyl)-2-methoxyphenol] | 57.75 µg/mL | 27.72 µg/mL | 0.806 ± 0.003 absorbance | 0.294 ± 0.008 absorbance | 0.951 ± 0.010 absorbance |  |  | 0.700 |  | 61.9 nM |  | 0.424 | 33 nM | 23.1 nM | 99 nM | 
COc1ccc(/C=N/c2ccc(Br)cc2)cc1O [Compound 13, (E)-5-(((4-Bromophenyl)imino)methyl)-2-methoxyphenol] | 87.721 µg/mL and 87.72 µg/mL | 34.65 µg/mL | 0.701 ± 0.003 absorbance | 0.198 ± 0.004 absorbance | 0.875 ± 0.020 absorbance |  |  | 0.615 |  | 63 nM |  | 0.483 | 28.9 nM | 17.8 nM | 77 nM | 67.6 ± 15.7 nM
COc1ccc(/C=N/c2ccc(N)cc2)cc1O [Compound 14, (E/Z)-5-(((4-Aminophenyl)imino)methyl)-2-methoxyphenol] | 13.86 µg/mL | 5.33 µg/mL | 2.074 ± 0.017 absorbance | 2.741 ± 0.026 absorbance | 1.970 ± 0.018 absorbance |  |  | 0.900 |  | 53.3 nM | 26.1 ± 8.53 nM | 0.306 | 38.5 nM | 34.6 nM | 69.3 nM | 
COc1ccc(/C=N/Cc2ccccc2)cc1O [Compound 15, (E)-5-((Benzylimino)methyl)-2-methoxyphenol] | 99.01 µg/mL | 23.896 µg/mL and 23.89 µg/mL | 0.646 ± 0.034 absorbance | 0.363 ± 0.021 absorbance | 0.803 ± 0.013 absorbance |  |  | 0.704 |  | 99 nM |  | 0.521 | 36.5 nM | 25.7 nM | 139 nM | 
COc1ccc(/C=N/N=C(c2ccccc2)c2ccccc2)cc1O [Compound 16, (E)-5-(((Diphenylmethylene)hydrazineylidene)methyl)-2-methoxyphenol] | 30.13 µg/mL | 11.745 µg/mL and 11.74 µg/mL | 1.069 ± 0.057 absorbance | 0.311 ± 0.018 absorbance | 1.266 ± 0.029 absorbance |  |  | 0.627 |  | 69.3 nM |  | 0.326 | 25.7 nM | 16.1 nM | 112 nM | 
COc1ccc(/C=N/Nc2ccccc2)cc1O [Compound 17, (E)-2-Methoxy-5-((2-phenylhydrazineylidene)methyl)phenol] | 14.744 µg/mL and 14.74 µg/mL | 4.304 µg/mL and 4.30 µg/mL | 2.121 ± 0.014 absorbance | 2.391 ± 0.037 absorbance | 2.026 ± 0.016 absorbance |  |  | 1.206 |  | 96.2 nM |  | 0.247 | 19.8 nM | 23.9 nM | 116 nM | 
Cc1c(C)c2c(c(C)c1O)CCC(C)(C(=O)O)O2 (centres unmarked) [Trolox, trolox, reference compound] | 12.157 µg/mL and 12.15 µg/mL | 4.846 µg/mL and 4.84 µg/mL | 2.051 ± 0.028 absorbance | 1.570 ± 0.016 absorbance | 1.174 ± 0.027 absorbance |  |  |  |  |  |  |  |  |  |  | 
Cc1c(C)c2c(c(C)c1O)CC[C@@](C)(CCC[C@H](C)CCC[C@H](C)CCCC(C)C)O2 [α-Tocopherol, α-tocopherol, reference compound] | 10.043 µg/mL and 10.04 µg/mL | 9.493 µg/mL and 9.49 µg/mL | 1.763 ± 0.026 absorbance | 1.446 ± 0.009 absorbance | 1.923 ± 0.032 absorbance |  |  |  |  |  |  |  |  |  |  | 
